Results taken from ChEMBL document CHEMBL3045282, “Production of phytotoxins by Phoma exigua var. exigua, a potential mycoherbicide against perennial thistles” (J Agric Food Chem, 2008).
Active and inactive are the calls of the source. The rule behind the calls is not given here.

What was measured:
[1] = tested on: Sonchus arvensis; assay: Herbicidal activity against Sonchus arvensis (field sow-thistle) assessed as induction of leaf necrotic lesions measured 48 hr post compound treatment by leaf disk- puncture bioassay
[2] = tested on: Cirsium arvense; assay: Herbicidal activity against Cirsium arvense (Canada thistle) assessed as induction of leaf necrotic lesions measured 48 hr post compound treatment by leaf disk- puncture bioassay

Structure (SMILES)	Activity [1]	Activity [2]
C=C1[C@@H](C)[C@H]2[C@H](Cc3ccccc3)NC(=O)[C@]23C(=O)/C=C/[C@H](O)CCC[C@@H](C)C/C=C/[C@H]3[C@@H]1O	Active	Active
C[C@H]1C/C=C/[C@H]2[C@@H]3O[C@]3(C)[C@@H](C)[C@H]3[C@H](Cc4ccccc4)NC(=O)[C@]32OC(=O)/C=C/[C@@H](O)CCC1	Active	Active
C[C@H]1C/C=C/[C@H]2C=C(CO)[C@@H](C)[C@H]3[C@H](Cc4ccccc4)NC(=O)[C@]32OC(=O)/C=C/[C@H](O)CCC1	Active	Active
C=C1[C@@H](C)[C@H]2[C@H](Cc3ccccc3)NC(=O)[C@]23OC(=O)/C=C/[C@H](O)CCC[C@@H](C)C/C=C/[C@H]3[C@@H]1O	Active	Active
O=Cc1ccc(O)cc1	inactive	inactive
C=C1[C@@H](C)[C@H]2[C@H](Cc3ccccc3)NC(=O)[C@]23OC(=O)/C=C/CC(O)CC[C@@H](C)C/C=C/[C@H]3[C@@H]1O (stereo partly specified)		Active
